In US11713344B2 (DONG-A ST CO., LTD., priority 2017, dated 2023):

Columns and labels:
Human GLP-1 receptors = Human GLP-1 receptors (Homo sapiens, UniProt P43220); assay: GLP-1 receptor activation assay (CRE-luciferase reporter, CHO-K1)
Human glucagon receptors = Human glucagon receptors (Homo sapiens, UniProt P47871); assay: Glucagon receptor activation assay (CRE-luciferase reporter, CHO-K1)
Human glucagon receptors, sequence (P47871 26-477): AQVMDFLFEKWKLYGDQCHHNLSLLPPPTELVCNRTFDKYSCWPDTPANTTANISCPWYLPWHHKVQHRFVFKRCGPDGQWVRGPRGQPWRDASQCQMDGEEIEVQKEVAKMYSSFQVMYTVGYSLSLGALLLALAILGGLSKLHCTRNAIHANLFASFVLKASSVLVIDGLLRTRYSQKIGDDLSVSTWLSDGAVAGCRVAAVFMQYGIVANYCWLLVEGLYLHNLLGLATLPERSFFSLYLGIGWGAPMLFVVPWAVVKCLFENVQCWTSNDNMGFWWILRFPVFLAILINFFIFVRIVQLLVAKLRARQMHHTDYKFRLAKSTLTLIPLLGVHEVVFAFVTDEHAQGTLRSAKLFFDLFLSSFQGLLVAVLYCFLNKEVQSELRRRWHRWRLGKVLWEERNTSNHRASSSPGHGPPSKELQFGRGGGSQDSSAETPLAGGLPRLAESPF

Human GLP-1 receptors, sequence (P43220 24-463): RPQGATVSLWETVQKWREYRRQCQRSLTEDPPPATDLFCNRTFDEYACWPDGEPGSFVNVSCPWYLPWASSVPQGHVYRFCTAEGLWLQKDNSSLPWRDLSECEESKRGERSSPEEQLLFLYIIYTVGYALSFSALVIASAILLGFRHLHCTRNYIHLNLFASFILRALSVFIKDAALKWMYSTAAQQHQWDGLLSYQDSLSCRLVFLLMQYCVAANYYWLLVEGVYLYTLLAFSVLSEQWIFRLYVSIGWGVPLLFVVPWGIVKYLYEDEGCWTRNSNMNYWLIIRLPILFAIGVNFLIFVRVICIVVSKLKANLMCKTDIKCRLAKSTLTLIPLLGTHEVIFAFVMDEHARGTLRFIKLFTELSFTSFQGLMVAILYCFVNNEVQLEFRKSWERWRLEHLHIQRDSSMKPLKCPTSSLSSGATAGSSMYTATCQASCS

| EC50 (Human GLP-1 receptors) | EC50 (Human glucagon receptors) | SMILES |
| --- | --- | --- |
| < 0.01 nM | < 0.01 nM | CCCCCCCCCCCCCCCCCC(=O)N[C@@H](CCC(=O)NCCOCCOCC(=O)NCCOCCOCC(=O)NCCCC[C@H](NC(=O)[C@H](CC(=O)O)NC(=O)[C@H](CO)NC(=O)[C@@H](NC(=O)[C@H](Cc1ccccc1)NC(=O)[C@@H](NC(=O)CNC(=O)[C@H](CCC(N)=O)NC(=O)C(C)(C)NC(=O)[C@@H](N)Cc1c[nH]cn1)[C@@H](C)O)[C@@H](C)O)C(=O)N[C@@H](CO)C(=O)N[C@@H](CCCCN)C(=O)N[C@@H](Cc1ccc(O)cc1)C(=O)N[C@@H](CC(C)C)C(=O)N[C@@H](CC(=O)O)C(=O)NC(C)(C)C(=O)N[C@@H](CCCNC(=N)N)C(=O)N[C@@H](CCCNC(=N)N)C(=O)N[C@@H](C)C(=O)N[C@@H](CCC(N)=O)C(=O)N[C@@H](CC(=O)O)C(=O)N[C@@H](Cc1ccccc1)C(=O)N[C@H](C(=O)N[C@@H](CCC(N)=O)C(=O)N[C@@H](Cc1c[nH]c2ccccc12)C(=O)N[C@@H](CC(C)C)C(=O)N[C@@H](CCSC)C(=O)N[C@@H](CC(N)=O)C(=O)N[C@H](C(=O)N[C@@H](CCCCN)C(=O)O)[C@@H](C)O)C(C)C)C(=O)O [Compound 3] |
| 0.01 to 0.1 nM | 0.01 to 0.1 nM | CCCCCCCCCCCCCCCCCCCC(=O)N[C@@H](CCC(=O)NCCOCCOCC(=O)NCCOCCOCC(=O)NCCCC[C@H](NC(=O)[C@H](CC(=O)O)NC(=O)[C@H](CO)NC(=O)[C@@H](NC(=O)[C@H](Cc1ccccc1)NC(=O)[C@@H](NC(=O)CNC(=O)[C@H](CCC(N)=O)NC(=O)C(C)(C)NC(=O)[C@@H](N)Cc1c[nH]cn1)[C@@H](C)O)[C@@H](C)O)C(=O)N[C@@H](CO)C(=O)N[C@@H](CCCCN)C(=O)N[C@@H](Cc1ccc(O)cc1)C(=O)N[C@@H](CC(C)C)C(=O)N[C@@H](CC(=O)O)C(=O)NC(C)(C)C(=O)N[C@@H](CCCNC(=N)N)C(=O)N[C@@H](CCCNC(=N)N)C(=O)N[C@@H](C)C(=O)N[C@@H](CCC(N)=O)C(=O)N[C@@H](CC(=O)O)C(=O)N[C@@H](Cc1ccccc1)C(=O)N[C@H](C(=O)N[C@@H](CCC(N)=O)C(=O)N[C@@H](Cc1c[nH]c2ccccc12)C(=O)N[C@@H](CC(C)C)C(=O)N[C@@H](CCSC)C(=O)N[C@@H](CC(N)=O)C(=O)N[C@H](C(=O)N[C@@H](CCCCN)C(=O)O)[C@@H](C)O)C(C)C)C(=O)O [Compound 8] |
| 0.01 to 0.1 nM | 0.01 to 0.1 nM | CSCC[C@H](NC(=O)[C@H](CC(C)C)NC(=O)[C@H](Cc1c[nH]c2ccccc12)NC(=O)[C@H](CCC(N)=O)NC(=O)[C@@H](NC(=O)[C@H](Cc1ccccc1)NC(=O)[C@H](CC(=O)O)NC(=O)[C@H](CCC(N)=O)NC(=O)[C@H](C)NC(=O)[C@H](CCCNC(=N)N)NC(=O)[C@H](CCCNC(=N)N)NC(=O)C(C)(C)NC(=O)[C@H](CC(=O)O)NC(=O)[C@H](CC(C)C)NC(=O)[C@H](Cc1ccc(O)cc1)NC(=O)[C@H](CCCCN)NC(=O)[C@H](CO)NC(=O)[C@H](CCCCNC(=O)COCCOCCNC(=O)COCCOCCNC(=O)CC[C@H](NC(=O)CCCCCCCCCCCCCCCCC(N)=O)C(=O)O)NC(=O)[C@H](CC(=O)O)NC(=O)[C@H](CO)NC(=O)[C@@H](NC(=O)[C@H](Cc1ccccc1)NC(=O)[C@@H](NC(=O)CNC(=O)[C@H](CCC(N)=O)NC(=O)C(C)(C)NC(=O)[C@@H](N)Cc1c[nH]cn1)[C@@H](C)O)[C@@H](C)O)C(C)C)C(=O)N[C@@H](CC(N)=O)C(=O)N[C@H](C(=O)N[C@@H](CCCCN)C(=O)O)[C@@H](C)O [Compound 13] |

More lines, now with the values behind:

| SMILES | EC50 (Human GLP-1 receptors) | EC50 (Human glucagon receptors) |
| --- | --- | --- |
| CCCCCCCCCCCCCCCCCC(=O)N[C@@H](CCC(=O)NCCOCCOCC(=O)NCCOCCOCC(=O)NCCCC[C@H](NC(=O)[C@H](CC(=O)O)NC(=O)[C@H](CO)NC(=O)[C@@H](NC(=O)[C@H](Cc1ccccc1)NC(=O)[C@@H](NC(=O)CNC(=O)[C@H](CCC(N)=O)NC(=O)C(C)(C)NC(=O)[C@@H](N)Cc1c[nH]cn1)[C@@H](C)O)[C@@H](C)O)C(=O)N[C@@H](CO)C(=O)N[C@@H](CCCCN)C(=O)N[C@@H](Cc1ccc(O)cc1)C(=O)N[C@@H](CC(C)C)C(=O)N[C@@H](CC(=O)O)C(=O)NC(C)(C)C(=O)N[C@@H](CCCNC(=N)N)C(=O)N[C@@H](CCCNC(=N)N)C(=O)N[C@@H](C)C(=O)N[C@@H](CCC(N)=O)C(=O)N[C@@H](CC(=O)O)C(=O)N[C@@H](Cc1ccccc1)C(=O)N[C@H](C(=O)N[C@@H](CCC(N)=O)C(=O)N[C@@H](Cc1c[nH]c2ccccc12)C(=O)N[C@@H](CC(C)C)C(=O)N[C@@H](CCSC)C(=O)N[C@@H](CC(N)=O)C(=O)N[C@H](C(=O)N[C@@H](CCCCN)C(N)=O)[C@@H](C)O)C(C)C)C(=O)O [Compound 6] | < 0.01 nM | < 0.01 nM |
| CCCCCCCCCCCCCCCCCC(=O)N[C@@H](CCC(=O)NCCOCCOCC(=O)NCCOCCOCC(=O)NCCCC[C@H](NC(=O)[C@H](CC(=O)O)NC(=O)[C@H](CO)NC(=O)[C@@H](NC(=O)[C@H](Cc1ccccc1)NC(=O)[C@@H](NC(=O)CNC(=O)[C@H](CCC(N)=O)NC(=O)C(C)(C)NC(=O)[C@@H](N)Cc1c[nH]cn1)[C@@H](C)O)[C@@H](C)O)C(=O)N[C@@H](CO)C(=O)N[C@@H](CCCCN)C(=O)N[C@@H](Cc1ccc(O)cc1)C(=O)N[C@@H](CC(C)C)C(=O)N[C@@H](CC(=O)O)C(=O)NC(C)(C)C(=O)N[C@@H](CCCNC(=N)N)C(=O)N[C@@H](CCCNC(=N)N)C(=O)N[C@@H](C)C(=O)N[C@@H](CCC(N)=O)C(=O)N[C@@H](CC(=O)O)C(=O)N[C@@H](Cc1ccccc1)C(=O)N[C@H](C(=O)N[C@@H](CCC(N)=O)C(=O)N[C@@H](Cc1c[nH]c2ccccc12)C(=O)N[C@@H](CC(C)C)C(=O)N[C@@H](CCSC)C(=O)N[C@@H](CC(N)=O)C(=O)N[C@H](C(=O)N[C@@H](CCCCN)C(=O)N[C@@H](CCCNC(=N)N)C(=O)N[C@@H](CC(N)=O)C(=O)N[C@@H](CCCNC(=N)N)C(=O)N[C@@H](CC(N)=O)C(=O)N[C@@H](CC(N)=O)C(=O)N[C@H](C(=O)N[C@@H](C)C(=O)O)[C@@H](C)CC)[C@@H](C)O)C(C)C)C(=O)O [Compound 7] | < 0.01 nM | < 0.01 nM |
| CCCCCCCCCCCCCCCCCC(=O)N[C@@H](CCC(=O)N[C@@H](CCC(=O)NCCOCCOCC(=O)NCCOCCOCC(=O)NCCCC[C@H](NC(=O)[C@H](CC(=O)O)NC(=O)[C@H](CO)NC(=O)[C@@H](NC(=O)[C@H](Cc1ccccc1)NC(=O)[C@@H](NC(=O)CNC(=O)[C@H](CCC(N)=O)NC(=O)C(C)(C)NC(=O)[C@@H](N)Cc1c[nH]cn1)[C@@H](C)O)[C@@H](C)O)C(=O)N[C@@H](CO)C(=O)N[C@@H](CCCCN)C(=O)N[C@@H](Cc1ccc(O)cc1)C(=O)N[C@@H](CC(C)C)C(=O)N[C@@H](CC(=O)O)C(=O)NC(C)(C)C(=O)N[C@@H](CCCNC(=N)N)C(=O)N[C@@H](CCCNC(=N)N)C(=O)N[C@@H](C)C(=O)N[C@@H](CCC(N)=O)C(=O)N[C@@H](CC(=O)O)C(=O)N[C@@H](Cc1ccccc1)C(=O)N[C@H](C(=O)N[C@@H](CCC(N)=O)C(=O)N[C@@H](Cc1c[nH]c2ccccc12)C(=O)N[C@@H](CC(C)C)C(=O)N[C@@H](CCSC)C(=O)N[C@@H](CC(N)=O)C(=O)N[C@H](C(=O)N[C@@H](CCCCN)C(=O)O)[C@@H](C)O)C(C)C)C(=O)O)C(=O)O [Compound 9] | < 0.01 nM | < 0.01 nM |
| CCCCCCCCCCCCCCCCCC(=O)N[C@@H](CCC(=O)NCCOCCOCC(=O)NCCOCCOCC(=O)NCCOCCOCC(=O)NCCCC[C@H](NC(=O)[C@H](CC(=O)O)NC(=O)[C@H](CO)NC(=O)[C@@H](NC(=O)[C@H](Cc1ccccc1)NC(=O)[C@@H](NC(=O)CNC(=O)[C@H](CCC(N)=O)NC(=O)C(C)(C)NC(=O)[C@@H](N)Cc1c[nH]cn1)[C@@H](C)O)[C@@H](C)O)C(=O)N[C@@H](CO)C(=O)N[C@@H](CCCCN)C(=O)N[C@@H](Cc1ccc(O)cc1)C(=O)N[C@@H](CC(C)C)C(=O)N[C@@H](CC(=O)O)C(=O)NC(C)(C)C(=O)N[C@@H](CCCNC(=N)N)C(=O)N[C@@H](CCCNC(=N)N)C(=O)N[C@@H](C)C(=O)N[C@@H](CCC(N)=O)C(=O)N[C@@H](CC(=O)O)C(=O)N[C@@H](Cc1ccccc1)C(=O)N[C@H](C(=O)N[C@@H](CCC(N)=O)C(=O)N[C@@H](Cc1c[nH]c2ccccc12)C(=O)N[C@@H](CC(C)C)C(=O)N[C@@H](CCSC)C(=O)N[C@@H](CC(N)=O)C(=O)N[C@H](C(=O)N[C@@H](CCCCN)C(=O)O)[C@@H](C)O)C(C)C)C(=O)O [Compound 10] | < 0.01 nM | < 0.01 nM |
| CCCCCCCCCCCCCCCCCC(=O)N[C@@H](CCC(=O)NCC(=O)N[C@@H](CO)C(=O)NCC(=O)N[C@@H](CO)C(=O)NCC(=O)NCC(=O)NCCCC[C@H](NC(=O)[C@H](CC(=O)O)NC(=O)[C@H](CO)NC(=O)[C@@H](NC(=O)[C@H](Cc1ccccc1)NC(=O)[C@@H](NC(=O)CNC(=O)[C@H](CCC(N)=O)NC(=O)C(C)(C)NC(=O)[C@@H](N)Cc1c[nH]cn1)[C@@H](C)O)[C@@H](C)O)C(=O)N[C@@H](CO)C(=O)N[C@@H](CCCCN)C(=O)N[C@@H](Cc1ccc(O)cc1)C(=O)N[C@@H](CC(C)C)C(=O)N[C@@H](CC(=O)O)C(=O)NC(C)(C)C(=O)N[C@@H](CCCNC(=N)N)C(=O)N[C@@H](CCCNC(=N)N)C(=O)N[C@@H](C)C(=O)N[C@@H](CCC(N)=O)C(=O)N[C@@H](CC(=O)O)C(=O)N[C@@H](Cc1ccccc1)C(=O)N[C@H](C(=O)N[C@@H](CCC(N)=O)C(=O)N[C@@H](Cc1c[nH]c2ccccc12)C(=O)N[C@@H](CC(C)C)C(=O)N[C@@H](CCSC)C(=O)N[C@@H](CC(N)=O)C(=O)N[C@H](C(=O)N[C@@H](CCCCN)C(=O)O)[C@@H](C)O)C(C)C)C(=O)O [Compound 11] | < 0.01 nM | 0.01 to 0.1 nM |
| CCCCCCCCCCCCCCCCCC(=O)N[C@@H](CCC(=O)NCCOCCOCC(=O)NCCOCCOCC(=O)NCCCC[C@H](NC(=O)[C@H](CC(=O)O)NC(=O)[C@H](CO)NC(=O)[C@@H](NC(=O)[C@H](Cc1ccccc1)NC(=O)[C@@H](NC(=O)CNC(=O)[C@H](CCC(N)=O)NC(=O)C(C)(C)NC(=O)[C@@H](N)Cc1c[nH]cn1)[C@@H](C)O)[C@@H](C)O)C(=O)N[C@@H](CO)C(=O)N[C@@H](CCCCN)C(=O)N[C@@H](Cc1ccc(O)cc1)C(=O)N[C@@H](CC(C)C)C(=O)N[C@@H](CC(=O)O)C(=O)NC(C)(C)C(=O)N[C@@H](CCCNC(=N)N)C(=O)N[C@@H](CCCNC(=N)N)C(=O)N[C@@H](C)C(=O)N[C@@H](CCC(N)=O)C(=O)N[C@@H](CC(=O)O)C(=O)N[C@@H](Cc1ccccc1)C(=O)N[C@H](C(=O)N[C@@H](CCC(N)=O)C(=O)N[C@@H](Cc1c[nH]c2ccccc12)C(=O)N[C@@H](CC(C)C)C(=O)N[C@@H](CC(C)C)C(=O)N[C@@H](CCCNC(=N)N)C(=O)N[C@@H](C)C(=O)N[C@@H](CCCCN)C(=O)O)C(C)C)C(=O)O [Compound 12] | < 0.01 nM | < 0.01 nM |
